The structures appear in SMILES notation. Active and inactive are the calls of the source.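 How the source made its calls: active means AC50 no more than tenfold above the top dose tested, or full inhibition at every dose with a flat fit (cut at about 19 µM in these data); inconclusive means flat curve fit with inhibition between 30% and 70%, or poor fit; inactive means AC50 more than tenfold above the top dose tested.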

Data on 92 compounds can be found in PubChem BioAssay AID463074 (Broad Institute, 2010).

The subject of the experiment is HMLE_sh_eGFP viability, CellTiter-Glo luminescence, 72 h. Put plainly: viability loss of HMLE_sh_eGFP cells – cell-based, luminescence, counter-screen for HMLE_sh_ECad selective toxicity project, dose response (AID 463074).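 Further: counterscreen control line to flag general toxicity for the HMLE_sh_ECad screen; potency for loss of viability as luminescence drops below DMSO wells.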
With `O=C(c1cnn2c1NC(c1ccc(Br)cc1)CC2C(F)(F)F)N1CCN2CCCC2C1` (configuration not stated), the AC50 is 4.46 µM.

Take `CCOc1ccc(N/C(N)=N/c2nc(CSc3nnc(C)s3)cc(=O)[nH]2)cc1`: the AC50 is 0.609 µM.

In the case of `COc1ccc(/C=N/NC(=O)c2cc(C34CC5CC(CC(C5)C3)C4)[nH]n2)cc1O`, the half-maximal activity concentration (AC50) is 1.8 µM.

As for `O=C(Nc1ccon1)c1nc[nH]c1C(=O)NCc1ccccc1`, the half-maximal activity concentration (AC50) was 1.77 µM.

`CCCc1ccc(O)c(N=Cc2cc(Br)cc(OCC)c2O)c1`: the AC50 was 9.03 µM.

Take `CC(=NCc1cccc(Cl)c1)c1nc(-c2ccco2)oc1O`: the AC50 is 0.554 µM.

For the compound `CCCCCCCCCCS(=O)(=O)N/N=C/c1ccc([N+](=O)[O-])cc1`, the AC50 is 12.9 µM.

For the compound `Cc1cc(C)cc(N2C(=O)NC(=O)/C(=C/c3cccn3-c3ccc(Cl)cc3)C2=O)c1`, the half-maximal activity concentration (AC50) was 2.84 µM.

`C=CCn1cccc(/C=C/C(=O)c2ccc(C(C)(C)C)cc2)c1=S`: the AC50 was 6.19 µM.

With `CCCCCc1nc2c(c(=O)c3ccccc3n2C)c(=O)n1C1CCCCCC1`, the AC50 was 2.97 µM.

Turning to `CN(CC(=O)Nc1cccc(F)c1)C(=O)c1cn(-c2ccccc2)nc1-c1ccc(Cl)cc1`, the AC50 is 3.85 µM.

For `CCCC(O)(c1ccc(Cl)cc1)C(CN1CCOCC1)c1ccc(Cl)cc1` (configuration not stated), the AC50 is 9.47 µM.

For the compound `CC/C(=N/NC(=O)c1ccccc1O)c1c(C)[nH]n(-c2ccccc2)c1=O`, the AC50 was 5.25 µM.

With `O=C(Nc1cccc(Cl)c1)Nc1cc(S(=O)(=O)N2CCCCC2)ccc1Cl`, the AC50 was 2.82 µM.

As to `CC(C)(C)NC(=O)Cn1nnc(-c2ccc(OCc3c(F)cccc3Cl)cc2)n1`, the AC50 was 1.79 µM.

As to `Cc1ccc(NS(=O)(=O)c2cc([N+](=O)[O-])ccc2NNC(=S)Nc2cc(C)ccc2C)c(C)c1`, the AC50 was 2.6 µM.

Regarding `Cc1[nH]c2ccccc2c1/C=N/NC(=O)C1CC1(c1ccccc1)c1ccccc1` (configuration not stated), the AC50 is 6.08 µM.

Turning to `COc1cc(NS(=O)(=O)c2ccc(N/C=C(\C#N)c3nc4cc(Cl)ccc4o3)cc2)nc(OC)n1`, the AC50 is 7.54 µM.

Consider `CCCN(CCC)CCNC(=O)c1cc2c(-c3ccc(Cl)cc3)nn(C)c2s1`, for which the AC50 is 5.1 µM.

`CCn1c(=O)c([N+](=O)[O-])c(Cl)c2ccccc21`: the AC50 was 3.56 µM.

Turning to `O=C(/C(=C/O)N=Nc1ccc(Cl)cc1)c1ccncc1`, the AC50 was 6.53 µM.

`Clc1cccc(Nc2nc(-c3ccncc3)cs2)c1`: the AC50 was 5.03 µM.

For `NCCNc1ccc(C(=O)N2c3ccccc3Sc3ccccc32)cc1[N+](=O)[O-]`, the AC50 was 8.03 µM.

On to `O=C(COc1cccc(C(F)(F)F)c1)N1CCN(c2ccc(O)cc2)CC1`, for which the AC50 is 4.98 µM.

Regarding `c1ccc(-c2sc3ccccc3c2-c2ccc(OCCN3CCOCC3)cc2)cc1`, the AC50 was 3.24 µM.

Take `CCCCCCSc1cccc(-c2nc3cc(C)ccn3c2NC2CCCCC2)c1`: the AC50 was 9.77 µM.

In the case of `CC(=O)Nc1sc(C)c(C)c1C(=O)OCC(=O)N(CC(C)C)c1c(N)n(Cc2ccccc2)c(=O)[nH]c1=O`, the AC50 is 2.85 µM.

As to `c1ccc(NNC2=NCCCCC2)cc1`, the AC50 is 2.89 µM.

With `COc1c(CC=C(C)C)cc(C2CC(=O)c3c(O)cc(O)cc3O2)cc1CC=C(C)C` (configuration not stated), the AC50 is 3.65 µM.

As for `CCOC(=O)c1c(NC(NC(=O)C(C)C)C(Cl)(Cl)Cl)sc2c1CCC2` (configuration not stated), the AC50 was 7.47 µM.

With `NC(=O)CC(NC(=O)c1ccc(Br)cc1)c1ccc(N2CCCCCCC2)c([N+](=O)[O-])c1` (configuration not stated), the AC50 was 7.85 µM.

In the case of `CCc1ccc([C@@H]2CC=C(C(=O)O)[C@H](c3ccc(Cl)cc3)N2S(=O)(=O)c2ccc(C)cc2)cc1`, the concentration at half-maximal activity (AC50) was 7.1 µM.

As to `O=c1c2ccccc2nc(COc2ccccc2)n1/N=C/c1cc([N+](=O)[O-])ccc1O`, the AC50 was > 19.5 µM (inactive).

Regarding `CCCSc1nsc(NC(=O)C(c2ccccc2)c2ccccc2)n1`, the AC50 is 3.64 µM.

Take `Nc1ccc(N2CCN(Cc3ccccc3Cl)CC2)c(Cl)c1`: the AC50 is 5.59 µM.

Take `COc1ccc(NC(=O)c2c(N)no[n+]2[O-])cc1`: the AC50 was 1.34 µM.

With `COc1cc(/C=N/Nc2nc(Nc3ccccc3)nc(-n3nc(C)cc3C)n2)cc(OC)c1OC`, the AC50 is 3.7 µM.

As to `COc1cccc(/C=C/C(=O)c2ccc(NS(=O)(=O)c3ccc(C)cc3)cc2)c1`, the AC50 was 3.22 µM.

In the case of `CC(C)(C)c1ccc(C(=O)Nc2ccc(N3CCOCC3)cc2)cc1`, the AC50 is 17.3 µM.

With `NC(=O)CC(NC(=O)Cc1cccc2ccccc12)c1ccc(NCc2ccc(F)c(F)c2)c([N+](=O)[O-])c1` (configuration not stated), the AC50 is 10.7 µM.

For the compound `O=C(Nc1nc2ccc(SC(F)F)cc2s1)c1ccc(NS(=O)(=O)c2ccc(F)c(F)c2)cc1`, the AC50 is 3.58 µM.

As for `COc1ccc(-c2sc3ccc(N4CCOCC4)cc3c2C#CC(C)(C)O)cc1`, the AC50 is 1.3 µM.

Consider `COc1ccc(CNCCC(c2ccc(OC(C)C)cc2)c2ccccc2OC)cc1` (configuration not stated), for which the AC50 is 4.71 µM.

Turning to `OC(CNCCc1ccc(C(F)(F)F)cc1)COc1ccc2ccccc2c1` (configuration not stated), the AC50 was 4.98 µM.

For `O=c1cc(N2CCCCC2)c(-c2ccccc2)nn1Cc1cccc(F)c1`, the AC50 was 5.13 µM.

For `COc1ccc(-c2sc3ccc(N4CCOCC4)cc3c2C#CC2(O)CCCCC2)cc1`, the AC50 was 2.94 µM.

As for `Oc1ccc(Nc2nc(-c3ccc4ccccc4c3)cs2)cc1`, the AC50 was 7.1 µM.

As for `CC#CCOC(=O)c1c(C)nc2sc3c(c2c1N)CCC(O)C3` (configuration not stated), the AC50 is 2.65 µM.

With `O=C(O)c1ccc(Cl)c(S(=O)(=O)N(Cc2ccccc2)c2ccc(F)cc2)c1`, the AC50 is 14.5 µM.

In the case of `Cc1ccc(/C=C/C(=O)Nc2ccc(Oc3ccccc3)cc2)o1`, the AC50 was 5.42 µM.

As for `Cc1ccccc1C(=O)N1CCN(c2ccc(NC(=O)c3ccc([N+](=O)[O-])o3)cc2)CC1`, the AC50 is 4.37 µM.

Take `Cc1cc(C)c(C(CC(=O)c2cccs2)C(C#N)C#N)c(C)c1` (configuration not stated): the AC50 is 5.9 µM.

For `Oc1ccc(Cl)cc1-c1cc(-c2cccc(Br)c2)n[nH]1`, the AC50 was 6.39 µM.

Regarding `O=C1c2ccccc2C2=Nc3ccccc3SC(c3ccc(Cl)cc3)C12` (configuration not stated), the AC50 is 10.6 µM.

Regarding `CCN(CC)CCCNC(=O)c1cc2c(Cl)nc3ccccc3c2s1`, the AC50 is 5.16 µM.

As to `Cc1cc(/C=N/n2c(COc3ccccc3)nc3ccccc3c2=O)c(O)c([N+](=O)[O-])c1`, the AC50 was > 10 µM (inactive).

Regarding `N#CCc1ccc(NC(=O)Nc2cccc(Cl)c2)cc1`, the AC50 was 20 µM.

In the case of `Cc1ccc(C(=O)ONc2ccc(N=NC(=O)c3ccccc3O)cc2)cc1`, the AC50 is 3.56 µM.

Turning to `C[C@@H]1CN([C@@H](C)CO)C(=O)Cc2cc(NC(=O)Nc3ccc(C(F)(F)F)cc3)ccc2O[C@@H]1CN(C)S(=O)(=O)c1ccc(Cl)cc1`, the AC50 is 1.78 µM.

In the case of `COC(=O)Nc1ccc(S(=O)(=O)N2CCCc3ccccc32)cc1`, the AC50 was 2.21 µM.

With `COc1cc(/C=C(\C#N)c2ccccn2)ccc1OCC(=O)Nc1ccc(Br)cc1`, the AC50 was 2.7 µM.

Consider `N#Cc1c(N)nc2c(c1-c1cccc(O)c1)CCCCCC2`, for which the AC50 is 16.3 µM.

For the compound `CCCCNc1c(-c2ccc(OC)c(SC(C)CC)c2)nc2ccc(C)cn12` (configuration not stated), the AC50 was 6.78 µM.

As for `Oc1ccccc1N1CCN(c2ncnc3sc(-c4ccccc4)cc23)CC1`, the AC50 is 3.53 µM.

In the case of `Clc1ccc(C(Cn2ccnc2)OCc2csc3c(Cl)cccc23)c(Cl)c1` (configuration not stated), the AC50 is 3.16 µM.

Regarding `CC1(C)C[C@H](O)[C@]2(CO)[C@H](O)C[C@]3(C)C(=CCC4[C@@]5(C)CC[C@H](O)C(C)(C)C5CC[C@]43C)[C@@H]2C1` (some centres not stated), the AC50 is 3.63 µM.

`Cc1ccn2c(Nc3ccccc3)c(-c3ccccn3)nc2c1`: the half-maximal activity concentration (AC50) is 4.57 µM.

In the case of `Clc1ccc(C(c2ccccc2Cl)C(Cl)Cl)cc1` (configuration not stated), the half-maximal activity concentration (AC50) is 6.32 µM.

For `COC(=O)Nc1ccc(S(=O)(=O)N2c3ccccc3CCC2C)cc1` (configuration not stated), the AC50 was 1.42 µM.

In the case of `Cc1cccc(N2CCN(C(=S)Nc3ccc4nc(N5CCN(C)CC5)cc(C)c4c3)CC2C)c1` (configuration not stated), the AC50 was 7.35 µM.

Turning to `Cc1sc2ncnc(N3CCN(CCOc4ccc(Cl)cc4)CC3)c2c1C`, the AC50 is 7.16 µM.

With `CC(=O)NC(c1ccccc1)c1cc([N+](=O)[O-])c2cccnc2c1O` (configuration not stated), the AC50 is 4.02 µM.

Consider `COc1cc2c(cc1NC(=O)c1cccc(S(=O)(=O)N(C)C)c1)oc1ccccc12`, for which the AC50 was 3.52 µM.

For `CC(=O)Oc1ccc2c(=O)c(-c3nc4ccccc4s3)coc2c1`, the AC50 is 9.34 µM.

Turning to `CCN1CCN(CCNC(=O)c2ccc3c(c2)N(Cc2ccc(F)cc2)C(=O)/C(=C/c2ccccc2)S3)CC1`, the AC50 was 3.71 µM.

On to `Cc1cccc(C)c1NS(=O)(=O)c1ccc(NC(=O)c2ccc(Cl)c([N+](=O)[O-])c2)cc1`, for which the AC50 was 3.66 µM.

`Cc1cc(O)c(C(C)C)cc1C1(c2cc(C(C)C)c(O)cc2C)OC(=O)c2ccccc21`: the half-maximal activity concentration (AC50) is 3.23 µM.

Turning to `O=C1c2ccccc2NC(c2ccc(-c3cccc(Cl)c3)o2)N1O` (configuration not stated), the AC50 is 4.85 µM.

Take `Nc1nc(Cl)nc2c1ncn2[C@H]1C[C@H](O)[C@@H](CO)O1`: the AC50 is 0.318 µM.

As for `CCn1c(C)nc2cc(C(=O)N/N=C/c3cccc(OC)c3O)ccc21`, the AC50 was 6.95 µM.

With `CC(=O)Nc1ccc(NC(=O)c2nc(S(=O)(=O)Cc3cccc(C)c3)ncc2Cl)cc1`, the AC50 is 4.99 µM.

Consider `Nc1ncnc2c1c(-c1ccc(Oc3ccccc3)cc1)cn2C1CCCC1`, for which the AC50 is 1.7 µM.

In the case of `COc1ccc(C)cc1NC(=O)CSc1nnc(COc2ccc(Cl)cc2)n1Cc1ccco1`, the AC50 is 8.28 µM.

Turning to `CCCCCc1cc(=O)oc2c(C(CCN3CCCC(C)C3)c3cc(OC)c(OC)c(OC)c3)c(OC)cc(OC)c12` (configuration not stated), the AC50 was 7.18 µM.

For the compound `COc1ccc2sc(-c3ccccc3OC)c(-c3ccc(OCCN4CCCC4)cc3)c2c1`, the AC50 is 3.74 µM.

In the case of `O=C(O)c1ccc(CSc2nc(-c3ccc(Cl)cc3)cc(C(F)(F)F)n2)cc1`, the concentration at half-maximal activity (AC50) is 9.94 µM.

For the compound `COC(=O)C1=C(C)N(Cc2ccccc2)C(=NCc2cccc(Cl)c2)N[C@H]1c1ccccc1`, the half-maximal activity concentration (AC50) was 7.17 µM.

Regarding `COc1ccc2nc(C)cc(SCC(=O)N/N=C/c3ccc(O)cc3O)c2c1`, the AC50 is 2.33 µM.

Consider `O=C(CSc1nnc(-c2ccccc2O)n1Cc1ccccc1)NNC(=O)c1ccccc1O`, for which the half-maximal activity concentration (AC50) was 3.22 µM.

On to `O=C(COCc1cc(-c2ccc3c(c2)OCO3)on1)N1CCN(c2cccc(C(F)(F)F)c2)CC1`, for which the AC50 is 2.69 µM.

Regarding `COc1ccc2c(c1)CCc1c(C(=O)N3CC4(C)CC3CC(C)(C)C4)noc1-2` (configuration not stated), the AC50 was < 0.16 µM.

Regarding `Cc1cc2nnc(SCC(=O)NCc3ccco3)n2c2ccccc12`, the AC50 was 4.5 µM.
